According to patent US20220226337A1 (Gilead Sciences, Inc., priority 2018, published 2022):

Target: T1, α4β7 integrin interaction with MadCAM-1 (RPMI8866 cells) (Homo sapiens, UniProt P13612+P26010)
T1 construct: α4β7 integrin expressing cells; endogenous in cells; host or cells: RPMI8866 cells
T1 sequence (P13612 34-1032): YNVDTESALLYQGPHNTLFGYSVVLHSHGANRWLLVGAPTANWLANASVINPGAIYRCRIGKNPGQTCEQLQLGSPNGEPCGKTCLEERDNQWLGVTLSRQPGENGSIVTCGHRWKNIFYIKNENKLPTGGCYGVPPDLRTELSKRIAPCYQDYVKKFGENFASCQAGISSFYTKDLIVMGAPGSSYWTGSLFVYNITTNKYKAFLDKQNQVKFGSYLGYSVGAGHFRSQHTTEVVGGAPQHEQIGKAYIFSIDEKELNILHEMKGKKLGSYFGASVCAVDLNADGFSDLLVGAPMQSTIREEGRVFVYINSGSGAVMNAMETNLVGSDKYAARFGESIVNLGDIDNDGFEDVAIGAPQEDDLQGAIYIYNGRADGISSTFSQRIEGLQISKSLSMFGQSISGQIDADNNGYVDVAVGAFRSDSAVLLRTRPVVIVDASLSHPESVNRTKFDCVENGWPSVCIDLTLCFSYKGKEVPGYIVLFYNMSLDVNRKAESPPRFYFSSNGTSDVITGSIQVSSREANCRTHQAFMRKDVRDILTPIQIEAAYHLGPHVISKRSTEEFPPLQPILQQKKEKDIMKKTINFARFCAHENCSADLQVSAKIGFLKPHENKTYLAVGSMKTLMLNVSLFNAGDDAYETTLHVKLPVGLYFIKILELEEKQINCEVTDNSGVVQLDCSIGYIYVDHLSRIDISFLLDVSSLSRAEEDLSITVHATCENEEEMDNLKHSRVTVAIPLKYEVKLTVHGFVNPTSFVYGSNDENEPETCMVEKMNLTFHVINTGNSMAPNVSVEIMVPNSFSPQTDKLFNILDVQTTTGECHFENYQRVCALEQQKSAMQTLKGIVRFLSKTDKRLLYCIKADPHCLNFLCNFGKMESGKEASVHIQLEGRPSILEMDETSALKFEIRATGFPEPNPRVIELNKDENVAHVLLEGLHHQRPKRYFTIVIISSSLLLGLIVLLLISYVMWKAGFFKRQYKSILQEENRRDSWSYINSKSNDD
T1 sequence (P26010 20-798): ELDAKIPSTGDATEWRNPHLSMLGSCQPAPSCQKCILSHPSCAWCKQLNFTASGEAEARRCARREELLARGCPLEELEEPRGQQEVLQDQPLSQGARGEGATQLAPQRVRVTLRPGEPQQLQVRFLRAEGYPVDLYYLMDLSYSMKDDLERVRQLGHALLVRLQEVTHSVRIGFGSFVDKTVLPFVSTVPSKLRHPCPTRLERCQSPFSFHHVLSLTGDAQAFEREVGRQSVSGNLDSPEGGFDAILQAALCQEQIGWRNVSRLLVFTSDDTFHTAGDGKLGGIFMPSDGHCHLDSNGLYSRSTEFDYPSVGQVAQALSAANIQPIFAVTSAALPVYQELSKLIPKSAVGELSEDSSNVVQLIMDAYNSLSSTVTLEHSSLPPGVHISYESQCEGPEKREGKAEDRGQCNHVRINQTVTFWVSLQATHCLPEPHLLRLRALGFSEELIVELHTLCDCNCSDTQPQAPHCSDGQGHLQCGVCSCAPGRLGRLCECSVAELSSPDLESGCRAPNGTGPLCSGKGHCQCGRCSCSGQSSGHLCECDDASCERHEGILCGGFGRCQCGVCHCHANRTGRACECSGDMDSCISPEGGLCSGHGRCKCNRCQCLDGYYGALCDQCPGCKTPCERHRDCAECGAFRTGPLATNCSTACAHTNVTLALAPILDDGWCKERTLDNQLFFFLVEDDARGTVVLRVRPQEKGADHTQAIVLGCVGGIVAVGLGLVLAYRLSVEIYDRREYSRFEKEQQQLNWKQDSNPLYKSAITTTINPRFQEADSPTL
Assay: α4β7 Integrin Cell Capture Assay
Assay type: cell-based
Settings: capture of α4β7 integrin expressing RPMI8866 cells on recombinant MadCAM-1 extracellular domain-coated plate; 0.5 mM MnCl2
In short: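 RPMI8866 cells (0.5×10^6 cells/mL in DMEM + 0.5% FBS + 0.5 mM MnCl2) preincubated with compound 1 h at 37 °C, then allowed to adhere 30 min at 37 °C to plates coated with MAdCAM-1 extracellular domain (1.0 μg/mL). Bound cells fixed with 2% glutaraldehyde, Hoechst-stained, imaged and counted; EC50 from cell count versus concentration.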

Compound	EC50 [nM]
Cc1cn(C)c(=O)c(-c2ccc(C[C@H](NC(=O)c3c(C)cc(N4CCOC[C@@H]4C(F)(F)F)cc3F)C(=O)O)c3c2OCCC3)n1 [Example 163]	0.731
CCc1nc(-c2ccc(C[C@H](NC(=O)c3c(F)cc(N4CCOC[C@@H]4C(F)(F)F)cc3F)C(=O)O)c3c2OCCC3)c(=O)n(C)c1CC [Example 164]	0.482
Cc1cc(N2CCOC[C@@H]2C(F)(F)F)cc(F)c1C(=O)N[C@@H](Cc1ccc(-c2nc(C)c(C)n(C)c2=O)c2c1CCCO2)C(=O)O [Example 165]	0.25
COc1cc(C)n(C)c(=O)c1-c1ccc(C[C@H](NC(=O)c2c(C)cc(N3CCOC[C@@H]3C(F)(F)F)cc2F)C(=O)O)c2c1OCCC2 [Example 166]	0.195
Cc1cc(N2CCC2)c(-c2ccc(C[C@H](NC(=O)c3c(F)cc(N4CCOC[C@@H]4C(F)(F)F)cc3F)C(=O)O)c3c2OCCC3)c(=O)n1C [Example 167]	0.521
Cc1cn(C)c(=O)c(-c2ccc(C[C@H](NC(=O)c3c(F)cc(N4CCOC[C@@H]4C(F)(F)F)cc3F)C(=O)O)c3c2OCCC3)n1 [Example 168]	0.946
CCc1nc(-c2ccc(C[C@H](NC(=O)c3c(C)cc(N4CCOC[C@@H]4C(F)(F)F)cc3F)C(=O)O)c3c2OCCC3)c(=O)n(C)c1CC [Example 169]	0.356
Cc1cc(N2CCOC[C@@H]2C(F)(F)F)cc(F)c1C(=O)N[C@@H](Cc1ccc(-c2cc3cnccc3n(C)c2=O)c2c1CCCO2)C(=O)O [Example 170]	0.14
Cn1c(=O)c(-c2ccc(C[C@H](NC(=O)c3c(F)cc(N4CCOC[C@@H]4C(F)(F)F)cc3F)C(=O)O)c3c2OCCC3)cc2cnccc21 [Example 171]	0.201
Cc1cc(N2CCOC[C@@H]2C(F)(F)F)cc(F)c1C(=O)N[C@@H](Cc1ccc(-n2c(=O)c3ccncc3n(C)c2=O)c2c1OCCO2)C(=O)O [Example 173]	0.056
Cc1nc(-c2ccc(C[C@H](NC(=O)c3c(F)cc(N4CCOC[C@@H]4C(F)(F)F)cc3F)C(=O)O)c3c2OCCO3)c(=O)n(C)c1C [Example 175]	0.205
Cc1ncc(-c2ccc(C[C@H](NC(=O)c3c(F)cc(N4CCOC[C@@H]4C(F)(F)F)cc3F)C(=O)O)c3c2OCCO3)c(=O)n1C [Example 177]	0.593
Cc1cc(N2CCOC[C@@H]2C(F)(F)F)cc(F)c1C(=O)N[C@@H](Cc1ccc(-c2cnc(C)n(C)c2=O)c2c1OCCO2)C(=O)O [Example 178]	0.348
Cc1cc(N2CCOC[C@@H]2C(F)(F)F)cc(F)c1C(=O)N[C@@H](Cc1ccc(-c2nc(C)c(C)n(C)c2=O)c2c1OCCO2)C(=O)O [Example 179]	0.267
CCc1nc(-c2ccc(C[C@H](NC(=O)c3c(C)cccc3F)C(=O)O)c3c2OCCO3)c(=O)n(C)c1CC [Example 180]	5.04
Cc1cccc(F)c1C(=O)N[C@@H](Cc1ccc(-c2nc(C)c(C)n(C)c2=O)c2c1OCCO2)C(=O)O [Example 181]	4.34
Cn1c(=O)n(-c2ccc(C[C@H](NC(=O)c3c(F)cc(N4CCOC[C@@H]4C(F)(F)F)cc3F)C(=O)O)c3c2COC3)c(=O)c2ccncc21 [Example 182]	0.277
Cc1cc(N2CCOC[C@@H]2C(F)(F)F)cc(F)c1C(=O)N[C@@H](Cc1ccc(-c2c(C)nc(C)n(C)c2=O)c2c1COC2)C(=O)O [Example 183]	0.106
Cc1nc(C)n(C)c(=O)c1-c1ccc(C[C@H](NC(=O)c2c(F)cc(N3CCOC[C@@H]3C(F)(F)F)cc2F)C(=O)O)c2c1COC2 [Example 185]	0.282

Compound	EC50 [nM]
Cc1cc(N2CCOC[C@@H]2C(F)(F)F)cc(F)c1C(=O)N[C@@H](Cc1ccc(-c2c(C)c(C(F)(F)F)cn(C)c2=O)c2c1COC2)C(=O)O [Example 187]	0.41
Cc1cc(N2CCOC[C@@H]2C(F)(F)F)cc(F)c1C(=O)N[C@@H](Cc1ccc(-c2c(C(F)(F)F)cc(C)n(C)c2=O)c2c1COC2)C(=O)O [Example 188]	0.227
Cc1cc(N2CCOC[C@@H]2C(F)(F)F)cc(F)c1C(=O)N[C@@H](Cc1ccc(-c2cc3cnccc3n(C)c2=O)c2c1COC2)C(=O)O [Example 189]	0.242
Cn1c(=O)c(-c2ccc(C[C@H](NC(=O)c3c(F)cc(N4CCOC[C@@H]4C(F)(F)F)cc3F)C(=O)O)c3c2COC3)cc2cnccc21 [Example 190]	0.338
Cc1nc(-c2ccc(C[C@H](NC(=O)c3c(F)cc(N4CCOC[C@@H]4C(F)(F)F)cc3F)C(=O)O)c3c2C[C@H](O)C3)c(=O)n(C)c1C [Example 191]	0.371
Cc1nc(-c2ccc(C[C@H](NC(=O)c3c(F)cc(N4CCOC[C@@H]4C(F)(F)F)cc3F)C(=O)O)c3c2C[C@@H](O)C3)c(=O)n(C)c1C [Example 192]	0.228
Cc1nc(-c2ccc(C[C@H](NC(=O)c3c(F)cc(N4CCOC[C@@H]4C(F)(F)F)cc3F)C(=O)O)c3c2CCC3)c(=O)n(C)c1C [Example 193]	0.264
Cc1cc(N2CCOC[C@@H]2C(F)(F)F)cc(F)c1C(=O)N[C@@H](Cc1ccc(-c2c(C)nc(C)n(C)c2=O)c2c1CCC2)C(=O)O [Example 194]	0.099
Cc1cc(C)n(C)c(=O)c1-c1ccc(C[C@H](NC(=O)c2c(F)cc(N3CCOC[C@@H]3C(F)(F)F)cc2F)C(=O)O)c2c1CCC2 [Example 195]	0.198
Cc1cc(N2CCOC[C@@H]2C(F)(F)F)cc(F)c1C(=O)N[C@@H](Cc1ccc(-c2c(C)c(C(F)(F)F)cn(C)c2=O)c2c1CCC2)C(=O)O [Example 196]	0.264
Cc1nc(-c2ccc(C[C@H](NC(=O)c3c(F)cc(N4CCOC[C@@H]4C(F)(F)F)cc3F)C(=O)O)c3c2CC(O)C3)c(=O)n(C)c1C (some centres unmarked) [Example 197]	0.308
COc1cc(C)n(C)c(=O)c1-c1ccc(C[C@H](NC(=O)c2c(C)cc(N3CCOC[C@@H]3C(F)(F)F)cc2F)C(=O)O)c2c1CCC2 [Example 198]	0.081
Cc1cc(N2CCOC[C@@H]2C(F)(F)F)cc(F)c1C(=O)N[C@@H](Cc1ccc(-c2nc(C)c(C)n(C)c2=O)c2c1CCC2)C(=O)O [Example 199]	0.19
Cc1cc(N2CCOC[C@@H]2C(F)(F)F)cc(F)c1C(=O)N[C@@H](Cc1ccc(-c2c(C(F)(F)F)cc(C)n(C)c2=O)c2c1CCC2)C(=O)O [Example 200]	0.083
CC[C@@H](Nc1cc(F)c(C(=O)N[C@@H](Cc2ccc(-c3c(C(F)(F)F)cc(C)n(C)c3=O)c3c2CCC3)C(=O)O)c(F)c1)C(F)(F)F [Example 201]	0.63
Cc1cc(C(F)(F)F)c(-c2ccc(C[C@H](NC(=O)c3c(F)cc(N4CCOC[C@@H]4C(F)(F)F)cc3F)C(=O)O)c3c2CCC3)c(=O)n1C [Example 202]	0.144
Cc1cc(C(F)(F)F)c(-c2ccc(C[C@H](NC(=O)c3c(F)cc(N4CCOC[C@@H]4C(F)(F)F)cc3F)C(=O)O)c3c2CCN(C)C3)c(=O)n1C [Example 203]	0.36
CC[C@@H](Nc1cc(F)c(C(=O)N[C@@H](Cc2ccc(-c3c(C(F)(F)F)cc(C)n(C)c3=O)c3c2CN(C)CC3)C(=O)O)c(F)c1)C(F)(F)F [Example 204]	1.34
Cc1nc(-c2ccc(C[C@H](NC(=O)c3c(F)cc(N4CCOC[C@@H]4C(F)(F)F)cc3F)C(=O)O)c3c2CN(C)C3)c(=O)n(C)c1C [Example 205]	1.27
